Measured values from paper PMC9405466, “Mechanistic Insight into the Enzymatic Inhibition of β-Amyrin against Mycobacterial Rv1636: In Silico and In Vitro Approaches” (Biology, 2022).

Columns and labels:
[1] = target: T1, Rv1636 (Mycobacterium tuberculosis, UniProt P9WFC9); test: malachite green ATPase inhibition assay; type: biochemical; details: ATP as substrate; TMD buffer pH 8.0, 10 mM MgCl2
[2] = target: T1, Rv1636; test: isothermal titration calorimetry (VP-ITC), one-site model; type: binding; details: read-out: Ka1 (converted)
Excerpt: isothermal titration calorimetry (VP-ITC), one-site model on Rv1636

[3] = tested on: Nc1ncnc2c1ncn2[C@@H]1O[C@H](COP(=O)(O)OP(=O)(O)OP(=O)(O)O)[C@@H](O)[C@H]1O; test: purified protein; details: 50 mM Tris pH 8.0, 10 mM MgCl2, 1 mM DTT, 0-80 µM ATP, 5 µM Rv1636, 1 h

T1 sequence (P9WFC9 whole entry, looked up): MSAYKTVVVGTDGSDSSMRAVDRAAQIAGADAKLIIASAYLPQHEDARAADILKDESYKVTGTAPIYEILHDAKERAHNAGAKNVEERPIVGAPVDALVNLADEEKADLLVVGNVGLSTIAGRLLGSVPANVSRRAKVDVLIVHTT

## CC1(C)CC[C@]2(C)CC[C@]3(C)C(=CC[C@@H]4[C@@]5(C)CC[C@H](O)C(C)(C)[C@@H]5CC[C@]43C)[C@@H]2C1 [β-Amyrin]
[1]
  ATPase activity: in the presence of an increasing concentration of β-Amyrin, the result showed a consistent reduction
[2]
  Kd: 17.8 µM

## Rv1636 (Mycobacterium tuberculosis H37Rv)
[3]
  Km: 5.187 ± 0.281 µM
  kcat: 0.000883 ± 1.7e-05 s⁻¹
